Reference: the NIST ThermoML archive (doi:10.1016/j.fluid.2014.08.018)

Conditions: Liquid, Vibrating tube method

CC[n+]1ccccc1C.O=S(=O)([N-]S(=O)(=O)C(F)(F)F)C(F)(F)F
Conditions	mass density [kg/m3]
283.15 K, 100 kPa	1520.3
283.15 K, 2500 kPa	1522.2
283.15 K, 5000 kPa	1523.8
283.15 K, 7500 kPa	1525.4
283.15 K, 10000 kPa	1527
283.15 K, 15000 kPa	1530.1
283.15 K, 20000 kPa	1533.1
283.15 K, 25000 kPa	1536
283.15 K, 30000 kPa	1538.8
283.15 K, 35000 kPa	1541.6
283.15 K, 45000 kPa	1546.9
283.15 K, 55000 kPa	1551.8
283.15 K, 65000 kPa	1556.4
288.15 K, 100 kPa	1515.4
288.15 K, 2500 kPa	1517.2
288.15 K, 5000 kPa	1518.9
288.15 K, 7500 kPa	1520.6
288.15 K, 10000 kPa	1522.2
288.15 K, 15000 kPa	1525.3
288.15 K, 20000 kPa	1528.3
288.15 K, 25000 kPa	1531.3
288.15 K, 30000 kPa	1534.2
288.15 K, 35000 kPa	1536.9
288.15 K, 45000 kPa	1542.2
288.15 K, 55000 kPa	1547.3
288.15 K, 65000 kPa	1552
293.15 K, 100 kPa	1510.5
293.15 K, 2500 kPa	1512.4
293.15 K, 5000 kPa	1514.1
293.15 K, 7500 kPa	1515.7
293.15 K, 10000 kPa	1517.4
293.15 K, 15000 kPa	1520.6
293.15 K, 20000 kPa	1523.6
293.15 K, 25000 kPa	1526.6
293.15 K, 30000 kPa	1529.5
293.15 K, 35000 kPa	1532.4
293.15 K, 45000 kPa	1537.8
293.15 K, 55000 kPa	1542.9
293.15 K, 65000 kPa	1547.7
298.15 K, 100 kPa	1505.6
298.15 K, 2500 kPa	1507.5
298.15 K, 5000 kPa	1509.2
298.15 K, 7500 kPa	1510.9
298.15 K, 10000 kPa	1512.5
298.15 K, 15000 kPa	1515.8
298.15 K, 20000 kPa	1519
298.15 K, 25000 kPa	1522
298.15 K, 30000 kPa	1525
298.15 K, 35000 kPa	1527.8
298.15 K, 45000 kPa	1533.3
298.15 K, 55000 kPa	1538.5
298.15 K, 65000 kPa	1543.4
303.15 K, 100 kPa	1500.8
303.15 K, 2500 kPa	1502.7
303.15 K, 5000 kPa	1504.5
303.15 K, 7500 kPa	1506.2
303.15 K, 10000 kPa	1507.9
303.15 K, 15000 kPa	1511.2
303.15 K, 20000 kPa	1514.3
303.15 K, 25000 kPa	1517.5
303.15 K, 30000 kPa	1520.5
303.15 K, 35000 kPa	1523.4
303.15 K, 45000 kPa	1528.9
303.15 K, 55000 kPa	1534.2
303.15 K, 65000 kPa	1539.2
308.15 K, 100 kPa	1495.9
308.15 K, 2500 kPa	1497.9
308.15 K, 5000 kPa	1499.7
308.15 K, 7500 kPa	1501.4
308.15 K, 10000 kPa	1503.1
308.15 K, 15000 kPa	1506.5
308.15 K, 20000 kPa	1509.7
308.15 K, 25000 kPa	1512.9
308.15 K, 30000 kPa	1515.9
308.15 K, 35000 kPa	1518.9
308.15 K, 45000 kPa	1524.5
308.15 K, 55000 kPa	1529.9
308.15 K, 65000 kPa	1534.9
313.15 K, 100 kPa	1491.1
313.15 K, 2500 kPa	1493.2
313.15 K, 5000 kPa	1495
313.15 K, 7500 kPa	1496.8
313.15 K, 10000 kPa	1498.5
313.15 K, 15000 kPa	1502
313.15 K, 20000 kPa	1505.2
313.15 K, 25000 kPa	1508.4
313.15 K, 30000 kPa	1511.5
313.15 K, 35000 kPa	1514.5
313.15 K, 45000 kPa	1520.3
313.15 K, 55000 kPa	1525.7
313.15 K, 65000 kPa	1530.8
318.15 K, 100 kPa	1486.3
318.15 K, 2500 kPa	1488.4
318.15 K, 5000 kPa	1490.3
318.15 K, 7500 kPa	1492.1
318.15 K, 10000 kPa	1493.8
318.15 K, 15000 kPa	1497.3
318.15 K, 20000 kPa	1500.6
318.15 K, 25000 kPa	1503.9
318.15 K, 30000 kPa	1507
318.15 K, 35000 kPa	1510.1
318.15 K, 45000 kPa	1515.9
318.15 K, 55000 kPa	1521.4
318.15 K, 65000 kPa	1526.6
323.15 K, 100 kPa	1481.5
323.15 K, 2500 kPa	1483.7
323.15 K, 5000 kPa	1485.6
323.15 K, 7500 kPa	1487.4
323.15 K, 10000 kPa	1489.2
323.15 K, 15000 kPa	1492.7
323.15 K, 20000 kPa	1496.2
323.15 K, 25000 kPa	1499.5
323.15 K, 30000 kPa	1502.6
323.15 K, 35000 kPa	1505.7
323.15 K, 45000 kPa	1511.7
323.15 K, 55000 kPa	1517.3
323.15 K, 65000 kPa	1522.5
328.15 K, 100 kPa	1476.8
328.15 K, 2500 kPa	1478.9
328.15 K, 5000 kPa	1480.8
328.15 K, 7500 kPa	1482.7
328.15 K, 10000 kPa	1484.5
328.15 K, 15000 kPa	1488.1
328.15 K, 20000 kPa	1491.6
328.15 K, 25000 kPa	1494.9
328.15 K, 30000 kPa	1498.2
328.15 K, 35000 kPa	1501.4
328.15 K, 45000 kPa	1507.4
328.15 K, 55000 kPa	1513
328.15 K, 65000 kPa	1518.4
333.15 K, 100 kPa	1472
333.15 K, 2500 kPa	1474.3
333.15 K, 5000 kPa	1476.2
333.15 K, 7500 kPa	1478.1
333.15 K, 10000 kPa	1480
333.15 K, 15000 kPa	1483.6
333.15 K, 20000 kPa	1487.2
333.15 K, 25000 kPa	1490.5
333.15 K, 30000 kPa	1493.9
333.15 K, 35000 kPa	1497
333.15 K, 45000 kPa	1503.2
333.15 K, 55000 kPa	1509
333.15 K, 65000 kPa	1514.3
